Reference: US20200352918A1, “COMPOUNDS AND METHODS FOR TREATING OR PREVENTING FIBROSIS” (priority 2019, published 2020)
Where a name gives a salt, the structure may show the parent alone.

Tests used:
[1] = system: iFA phenotype of mesenchymal-like cells on 13 kPa hydrogels; assay: iFA-prevention phenotypic high-content drug screen (iFA model); type: cell-based, human; conditions: for Dose response: 20 point dose course, picomolar to millimolar; for Efficacy in secondary screen: assay repeated with compound sourced commercially or from additional library materials; for Prevention/rescue of the iFA phenotype: 3.75 μgm/ml IFNγ (FIG. 25C)
Method: Mesenchymal-like cells were cultured on 13 kPa functionalized polyacrylamide gels that were prepared as follows. 187.5 μl of 40% acrylamide, 60 μl of 2% bis-acrylamide and 8.55 μl of sodium bisulfate in a final volume of 990 μl of water was incubated for 20 min at room temperature to degas the mixture. To this mixture, 0.10% ammonium persulfate and 0.15% TEMED were added, mixed and 100 μl of the solution was added onto a 0.4% 3-(Trimethoxysily) propyl methacrylate pH 3.5 treated coverslip. A 2% dimethyl dichlorosilane in chloroform treated round glass coverslip was then inverted on the acrylamide solution and allowed to polymerize for 15 min between the two surfaces. The top coverslip was gently removed, and the bottom coverslips with the hydrogel were transferred to appropriate multi-well low adherent tissue culture plate containing coupling buffer (0.1 M sodium phosphate dibasic, 0.1 M sodium phosphate monobasic) pH 8. To functionalize the hydrogel, 1 part of 0.1 M p-benzoquinone in dioxane was added to the hydrogels containing 4 parts of coupling buffer and incubated at 37° C. for 30 min. The gel was then successively washed with 20% dioxane in water, water, 0.1 M sodium acetate buffer at pH 4.0 containing 1.0 M sodium chloride, 0.1 M sodium bicarbonate solution at pH 8.5 containing 1.0 M sodium chloride, and finally with coupling buffer at pH 7.5. The hydrogels were then coated with 0.1% gelatin for 2 hrs prior to seeding the cells. Cells were seeded at a density of 3000 cells/cm^2.
A phenotypic high-content drug screen was prepared to identify compounds capable of preventing the iFA phenotype in a 96-well format. An ImageXpress XL high-throughput imager with a 4× Plan objective (N/A 0.20) was used with image based focusing. Briefly, 100 μL media were plated in each well of 96 well plate using a Thermo Multidrop non-contact dispenser. Using a custom V&P pin tool mounted to a Beckman FX liquid handler, 1.5 μL compounds or DMSO were added. Mesenchymal-like cells were added as a suspension using the Multidrop at a density of 3.5×10^3 cells/well. The resulting compound concentration was 10 μM. Cells were imaged after 7 days of incubation at 37° C. and 5% CO2: A final of 0.5 μg/ml of Calcein AM and/or 10 μg/ml propidium iodide (viability dye) with 1 μg/ml Hoechst 33342 were added and imaged using the ImageXpress XL system. Data mining was performed using a custom module consisting of the following steps: The image background was removed using a top-hat filter with 25 μm round shape polisher. Next, cellular aggregates and individual spindle-shaped cells were identified. Aggregates of cells were defined by size with a cut-off of 60 to 200 micron and an intensity of at least 200 gray scales over background. Individual spindle-shaped cells were identified as smaller objects with cut-offs from 15 to 100 micron and a lower intensity of at least 70 gray scales over background.
Additional morphometric measurements were made by counting labeled cell nuclei and measuring total area covered with cells per well. The data resulting from the screen were batch exported through MetaXpress and uploaded into a Collaborative Drug Discovery (CDD) cloud based database (Ekins and Bunin, 2013, Methods in molecular biology 993, 139-154.). Hits were selected on a cut-off of more than 3 standard deviations from mean using data normalized to reference wells in each plate. IC50 values (the half maximal inhibitory concentration) from confirmation experiments were calculated from dose-response signal curves using the Prism software (GraphPad Software).
Signal-to-background (S/B) ratio, standard variation and variation coefficients were calculated as the signal of DMSO treated wells divided by the signal of the hit compound (AA5) treated wells. […]

iFA model = assay: Fibrotic marker, cytokine and repair modulator expression in the iFA model (qPCR, immunoblotting, luminex, immunofluorescence); type: cell-based, human; conditions: 3.75 μgm/ml IFNγ vs DMSO-treated controls
Method: The Milliplex human cytokine/chemokine Panel IV, human TIMP Panel 2, and human TGFβ 1,2,3 magnetic bead kits (EMD Millipore) were used per manufacturer's instructions. Prior to plating, all samples tested for human TGFβ only were activated and neutralized with 1.0 N HCl and 1.0 N NaOH, respectively. Briefly, 25 μl of undiluted or treated cell culture supernatant samples were mixed with 25 μl of magnetic beads and allowed to incubate overnight at 4° C. while shaking. After washing the plates with wash buffer in a Biotek ELx405 washer, 25 μl of biotinylated detection antibody was added and incubated for 1 hour at room temperature while shaking. 25 μl of streptavidin-phycoerythrin conjugate was then added to the reaction mixture and incubated for another 30 minutes at room temperature while shaking. Following additional washes, beads were resuspended in sheath fluid, and fluorescence was quantified using a Luminex 200 instrument. Similarly, a custom magnetic Luminex assay kit of select analytes (R&D Systems) was used per manufacturer's instructions. Cell culture supernatants were prepared with a 2-fold dilution. 50 μl of diluted sample were added to 50 μl of provided micro-particle cocktail and incubated for 2 hours at room temperature while shaking. After washing with wash buffer, 50 μl of biotin antibody cocktail was added and incubated for 1 hour at room temperature while shaking. Following additional washes, 50 μl of diluted Streptavidin-PE was then added for incubation for 30 minutes at room temperature while shaking. The plate was then washed again and the micro-particles resuspended in 100 μl wash buffer. After an additional 2-minute incubation while shaking, the data was acquired using a Luminex 200 instrument.
In-vitro cultures of PF and cells in the iFA model were washed once with PBS and total RNA from the samples were extracted using the RNeasy Mini Kit (Qiagen) according to the manufacturer's instructions. For the lung slice cultures (LSC), tissues were snap-frozen after treatment and stored at −80° C. until RNA isolation. Lung slices were homogenized using a handheld homogenizer and passing the homogenate through a Qiashredder (Qiagen). Total RNA from the LSC and cells from the disease model were extracted using the RNeasy Mini Kit (Qiagen) according to the manufacturer's instructions. The RNA concentrations were measured on a NanoDrop ND-1000 spectrophotometer. Single-stranded cDNA was synthesized from 200 ng of total RNA using Superscript IV and random hexamer primers (Invitrogen) in a volume of 20 μl. cDNA was then used for qRT-PCR analysis. PCR reactions were performed using Taqman Gene Expression Assay mix (Applied Biosystems) according to the manufacturer's instructions.
qRT-PCR reactions were performed using the StepOnePlus (Applied Biosystems). Relative gene expression was calculated using the 2^−ΔΔCt method, with 18S Cat. #4331182 (Invitrogen) as housekeeping gene. For the RT^2qPCR arrays, cDNA from DMSO and AA5 treated iFA and was added to the RT^2 qPCR iTaq Universal SYBR green Master Mix (Biorad). 20 μl of the experimental cocktail was added to each well of the Fibrosis PCR (Qiagen). Real-Time PCR was performed on the StepOnePlus qPCR system (Applied Biosystems) using SYBR green detection according to the manufacturer's recommendations. All data from the PCR was collected and analyzed by SA Bioscience's PCR Array Data Analysis Web Portal.
Cells grown on coverslips were fixed in 4% paraformaldehyde (PFA) for 10 min at room temperature and washed three times with TBS buffer supplemented with 0.1% Tween 20 (TBST). Lung samples were fixed overnight in 4% PFA at room temperature, washed 3 times in PBS, dehydrated and then infiltrated and embedded with wax. Five-micron sections were collected on glass slides, deparaffinized and rehydrated. Heat-induced epitope retrieval was performed using 1 mM EDTA in a microwave. […]

[2] = library compound plated with cells on day 1 on hydrogel, phenotype on day 7, 10 μM

| Molecule | Efficacy in secondary screen [1] | Efficacy in primary screen [1, 2] | other results |
| --- | --- | --- | --- |
| COC(=O)/C=C/c1cc(O)ccc1O | ++ (++ = moderate effect) | +++ (+++ = strong effect) | Dose response [1]: ++ (++ = moderate effect) |
| CCCNC(=O)NS(=O)(=O)c1ccc(Cl)cc1 [Chlorpropamide] | + | +++ (+++ = strong effect) |  |
| C[C@@H](N)[C@H]1CC[C@H](C(=O)Nc2ccncc2)CC1 [Y-27632 Rock Inhibitor] | ++ (++ = moderate effect) | +++ (+++ = strong effect) |  |
| CN1CCN(c2cccc(Nc3nc4c(-c5ccc(S(C)(=O)=O)cc5)cccn4n3)c2)CC1 [CEP-33779 JAK2 Inhibitor] | ++ (++ = moderate effect) | +++ (+++ = strong effect) |  |
| CC(NC(C)(C)C)C(=O)c1cccc(Cl)c1 (stereo not drawn) [Bupropion hydrochloride] | + | +++ (+++ = strong effect) |  |
| COC(=O)Nc1nc2ccc(Sc3ccccc3)cc2[nH]1 [Fenbendazole., Fenbendazole] | ++ (++ = moderate effect) | +++ (+++ = strong effect) |  |
| CC(C)(CO)Cc1cc(C(C)(C)C)c(O)c(C(C)(C)C)c1 [CGP-7930] | + | +++ (+++ = strong effect) |  |
| O=P1(N(CCCl)CCCl)NCCCO1 (stereo not drawn) [Cyclophosphamide] | + | +++ (+++ = strong effect) |  |
| CN1CCC2(C)c3cc(O)ccc3N(C)C12.O=C(O)/C=C/C(=O)O (single isomer, unassigned; (-)) [(−)Eseroline fumarate salt., (−)Eseroline fumarate salt] | ++ (++ = moderate effect) | +++ (+++ = strong effect) |  |
| CSCC[C@@H](N)C(=O)O [D-methionine] | ++ (++ = moderate effect) |  | Efficacy in primary screen ([1]; 168 h, 10 µM): +++ (+++ = strong effect) |
| S=C(Nc1ccccc1)Nc1nccs1 [1-Pheny1-3-(2-thiazolyl)-2-thiourea] | + | +++ (+++ = strong effect) |  |
| Cc1cc(C2CCCCC2)n(O)c(=O)c1.NCCO [Ciclopirox ethanolamine., Ciclopirox ethanolamine] | ++ (++ = moderate effect) | +++ (+++ = strong effect) |  |
| NCCCC(=O)O [γ-Aminobutyric acid] | + | +++ (+++ = strong effect) |  |
| NC(CP(=O)(O)O)C(=O)O (racemic) [±)-2-Amino-3-phosphonopropionic acid] | + | +++ (+++ = strong effect) |  |
| CCCCC/C=C\C/C=C\C/C=C\C/C=C\CCCC(=O)NCc1ccc(O)c(OC)c1 [Arvanil] | + | +++ (+++ = strong effect) |  |
| CN(C)c1ccc(C(=C2C=CC(=[N+](C)C)C=C2)c2ccc(N(C)C)cc2)cc1.[Cl-] | ++ (++ = moderate effect) | +++ (+++ = strong effect) |  |
| CC(C)(C=O)Cc1cc(C(C)(C)C)c(O)c(C(C)(C)C)c1 [CGP-13501] | + | +++ (+++ = strong effect) |  |
| COc1ccc2c(c1)c(CC(=O)O)c(C)n2Cc1ccc(Cl)cc1 [1-(4-Chlorobenzyl)-5-methoxy-2-methylindole-3-acetic acid] | + | +++ (+++ = strong effect) |  |
| N#CC(C#N)=C(N)/C(C#N)=C/c1cc(O)c(O)c(O)c1 [Tyrphostin 51] | + | +++ (+++ = strong effect) |  |
| Recombinant Human IFN-gamma Protein: Recombinant Human IFN-gamma Protein; IFNs are known anti-fibrotic cytokines (protein, UniProt P01579 24-161, looked up) Interferon gamma: QDPYVKEAENLKKYFNAGHSDVADNGTLFLGILKNWKEESDRKIMQSQIVSFYFKLFKNFKDDQSIQKSVETIKEDMNVKFFNSNKKKRDDFEKLTNYSVTDLNVQRKAIHELIQVMAELSPAAKTGKRKRSQMLFRG | ++ (++ = moderate effect) | +++ (+++ = strong effect) | α-SMA and Collagen I (IF) (iFA model): reduced; Prevention/rescue of the iFA phenotype [1]: Partial prevention of the iFA phenotype; Prevention/rescue of the iFA phenotype ([1]; listed as recombinant IFNγ): partially rescued the iFA phenotype; Dose response [1]: + |
